Data: PubChem BioAssay (NCI)
“And” between values parts separate entries of the source, which are not always exact repeats. Identical values can stand only once.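 Compound exposure: 48 hours, 5 concentrations, 96-well plates. GI50 = concentration required for 50% inhibition of growth. At the TGI there is no net growth.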

How the values were obtained:
Experiment in all cases: NCI tumour cell line growth inhibition, 48 h
786-0 renal = system: 786-0 renal
A498 renal = system: A498 renal
A549 NSCLC = system: A549 NSCLC
ACHN renal = system: ACHN renal
BT-549 breast = system: BT-549 breast
CAKI-1 renal = system: CAKI-1 renal
CCRF-CEM leukemia = system: CCRF-CEM leukemia
COLO 205 colon = system: COLO 205 colon
DU-145 prostate = system: DU-145 prostate
EKVX NSCLC = system: EKVX NSCLC
HCC-2998 colon = system: HCC-2998 colon
HCT-116 colon = system: HCT-116 colon
HCT-15 colon = system: HCT-15 colon
HL-60(TB) leukemia = system: HL-60(TB) leukemia
HOP-62 NSCLC = system: HOP-62 NSCLC
HOP-92 NSCLC = system: HOP-92 NSCLC
HS 578T breast = system: HS 578T breast
HT29 colon = system: HT29 colon
IGROV1 ovarian = system: IGROV1 ovarian
K-562 leukemia = system: K-562 leukemia
KM12 colon = system: KM12 colon
LOX IMVI melanoma = system: LOX IMVI melanoma
M14 melanoma = system: M14 melanoma
MALME-3M melanoma = system: MALME-3M melanoma
MCF7 breast = system: MCF7 breast
MDA-MB-231 breast = system: MDA-MB-231 breast
MDA-MB-435 = system: MDA-MB-435
MOLT-4 leukemia = system: MOLT-4 leukemia
NCI-H226 lung = system: NCI-H226 lung
NCI-H23 lung = system: NCI-H23 lung
NCI-H460 lung = system: NCI-H460 lung
NCI-H522 lung = system: NCI-H522 lung
NCI/ADR-RES ovarian = system: NCI/ADR-RES ovarian
OVCAR-3 ovarian = system: OVCAR-3 ovarian
OVCAR-4 ovarian = system: OVCAR-4 ovarian
OVCAR-5 ovarian = system: OVCAR-5 ovarian
OVCAR-8 ovarian = system: OVCAR-8 ovarian
PC-3 prostate = system: PC-3 prostate
RPMI-8226 leukemia = system: RPMI-8226 leukemia
RXF 393 renal = system: RXF 393 renal
SF-268 CNS = system: SF-268 CNS
SF-295 CNS = system: SF-295 CNS
SF-539 CNS = system: SF-539 CNS
SK-MEL-2 melanoma = system: SK-MEL-2 melanoma
SK-MEL-28 melanoma = system: SK-MEL-28 melanoma
SK-MEL-5 melanoma = system: SK-MEL-5 melanoma
SK-OV-3 ovarian = system: SK-OV-3 ovarian
SN12C renal = system: SN12C renal
SNB-19 CNS = system: SNB-19 CNS
SNB-75 CNS = system: SNB-75 CNS
SR leukemia = system: SR leukemia
SW-620 colon = system: SW-620 colon
T-47D breast = system: T-47D breast
TK-10 renal = system: TK-10 renal
U251 CNS = system: U251 CNS
UACC-257 melanoma = system: UACC-257 melanoma
UACC-62 melanoma = system: UACC-62 melanoma
UO-31 renal = system: UO-31 renal

## COc1cc(C(=O)Nc2cc(O)c(C/C=C(\C)CCC=C(C)C)c(O)c2)cc2c1O[C@]1(C)CC[C@@H](O)C(C)(C)[C@H]1C2
786-0 renal
  GI50: 9.47 nM and 16.8 nM
  TGI: 6070 nM
A498 renal
  GI50: 62.3 nM and 25.8 nM
  TGI: 1720 nM and 889 nM
A549 NSCLC
  GI50: 381 nM and 214 nM
  TGI: 13900 nM
ACHN renal
  GI50: 1220 nM
  TGI: 13100 nM
BT-549 breast
  TGI: 5230 nM
CAKI-1 renal
  GI50: 39.4 nM
  TGI: 11900 nM
CCRF-CEM leukemia
  GI50: 43.8 nM and 38.4 nM
  TGI: > 22700 nM
COLO 205 colon
  GI50: 386 nM and 678 nM
  TGI: 4250 nM and 5320 nM
DU-145 prostate
  GI50: 1880 nM and 331 nM
  TGI: 13100 nM
EKVX NSCLC
  GI50: 1120 nM and 1160 nM
  TGI: 14800 nM
HCC-2998 colon
  GI50: 1490 nM and 2130 nM
  TGI: 16400 nM
HCT-116 colon
  GI50: 143 nM and 185 nM
  TGI: 7110 nM
HCT-15 colon
  GI50: 471 nM and 628 nM
  TGI: 3380 nM and 3370 nM
HL-60(TB) leukemia
  GI50: 7.16 nM and 69.9 nM
HOP-62 NSCLC
  GI50: 53.7 nM and 176 nM
  TGI: 6970 nM
HOP-92 NSCLC
  GI50: 237 nM and 173 nM
  TGI: 8130 nM and 4790 nM
HS 578T breast
  GI50: 14.4 nM
  TGI: 14800 nM
HT29 colon
  GI50: 1420 nM and 955 nM
  TGI: 5430 nM and 3790 nM
IGROV1 ovarian
  GI50: 3370 nM and 881 nM
  TGI: 19500 nM
K-562 leukemia
  GI50: 35.9 nM and 65.9 nM
  TGI: 2170 nM and 2600 nM
KM12 colon
  GI50: 2390 nM and 1520 nM
  TGI: 12800 nM
LOX IMVI melanoma
  GI50: 62.6 nM and 80.9 nM
  TGI: 2700 nM and 1920 nM
M14 melanoma
  GI50: 98.4 nM and 81.2 nM
  TGI: 4760 nM and 1910 nM
MALME-3M melanoma
  GI50: 300 nM and 1240 nM
  TGI: 7460 nM
MCF7 breast
  GI50: 50.7 nM and 104 nM
  TGI: 12300 nM
MDA-MB-231 breast
  GI50: 1010 nM and 461 nM
  TGI: 5530 nM and 5340 nM
MDA-MB-435
  GI50: 325 nM and 1260 nM
  TGI: 13000 nM
MOLT-4 leukemia
  GI50: 29.8 nM
  TGI: 1540 nM
NCI-H226 lung
  GI50: 3470 nM
  TGI: 29000 nM
NCI-H23 lung
  GI50: 1610 nM and 2090 nM
  TGI: 19700 nM
NCI-H460 lung
  GI50: 83 nM and 101 nM
  TGI: 13500 nM
NCI-H522 lung
  GI50: 7000 nM and 1290 nM
  TGI: 11600 nM
NCI/ADR-RES ovarian
  GI50: 9220 nM and 6620 nM
  TGI: > 76400 nM
OVCAR-3 ovarian
  GI50: 3170 nM and 1760 nM
  TGI: 6120 nM
OVCAR-4 ovarian
  GI50: 5300 nM and 3140 nM
  TGI: 32000 nM
OVCAR-5 ovarian
  GI50: 2890 nM and 3490 nM
  TGI: 21600 nM
OVCAR-8 ovarian
  GI50: 4280 nM and 2210 nM
  TGI: 31400 nM
PC-3 prostate
  GI50: 30.2 nM and 46.3 nM
  TGI: 17800 nM
RPMI-8226 leukemia
  GI50: 9.11 nM and 19.7 nM
  TGI: 80.6 nM and 95.8 nM
RXF 393 renal
  GI50: 4.19 nM
  TGI: 80.9 nM and 170 nM
SF-268 CNS
  GI50: 1100 nM and 741 nM
  TGI: 15800 nM
SF-295 CNS
  GI50: 3.07 nM and < 12 nM
  TGI: 13.5 nM and 51.5 nM
SF-539 CNS
  GI50: 6.23 nM
  TGI: 411 nM and 658 nM
SK-MEL-2 melanoma
  GI50: 83.3 nM and 215 nM
  TGI: 3080 nM
SK-MEL-28 melanoma
  GI50: 178 nM and 629 nM
  TGI: 13800 nM
SK-MEL-5 melanoma
  GI50: 177 nM and 631 nM
  TGI: 2100 nM and 3990 nM
SK-OV-3 ovarian
  GI50: 92.6 nM and 114 nM
  TGI: 22700 nM
SN12C renal
  GI50: 1950 nM and 2440 nM
  TGI: 19900 nM
SNB-19 CNS
  GI50: 3280 nM and 1900 nM
  TGI: 26400 nM
SNB-75 CNS
  GI50: 8.98 nM and < 11.1 nM
  TGI: 7560 nM
SR leukemia
  GI50: 38.2 nM and 21.9 nM
  TGI: 7200 nM and 5930 nM
SW-620 colon
  GI50: 89.9 nM and 159 nM
  TGI: 1840 nM and 15600 nM
T-47D breast
  GI50: 401 nM and 690 nM
  TGI: 4880 nM
TK-10 renal
  GI50: 2540 nM
  TGI: 28900 nM
U251 CNS
  GI50: 9.61 nM and < 17.5 nM
  TGI: 6150 nM
UACC-257 melanoma
  GI50: 4910 nM and 1580 nM
  TGI: 23800 nM
UACC-62 melanoma
  GI50: 48.8 nM and 46.3 nM
  TGI: 803 nM and 1790 nM
UO-31 renal
  GI50: 78.6 nM and 237 nM
  TGI: 600 nM and 1290 nM
